Measurements published in patent publication US20210330611A1, “THERAPY FOR NEUROLOGICAL DISEASES/DISORDERS” (priority 2020, published 2021).
Like-named read-outs stand apart in the source and are kept apart here.

How the values were obtained:
[1] = system: primary rat microglia;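 as to Fibrin % cell toxicity: share of dead cells sized under 150 µm2 at 10 µM in fibrin-stimulated microglia HTS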
[2] = system: LPS-induced microglia activation; experiment: Image-based assay of LPS-induced microglia activation (HTS and dose response); assay type: cell-based, rat; conditions: for inhibition at 10 µM: Rattus norvegicus, Microglia, read-out: LPS % inhibition
[3] = system: fibrin-induced microglia activation; experiment: Image-based assay of fibrin-induced microglia activation (HTS and dose response); assay type: cell-based, rat; conditions: for inhibition at 10 µM: Rattus norvegicus, Microglia, read-out: Fibrin % inhibition
[4] = system: primary rat microglia; remark: listed apart in the source;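 as to Fibrin % cell toxicity: share of dead cells sized under 150 µm2 at 10 µM in fibrin-stimulated microglia HTS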
[5] = system: fibrin- and LPS-induced microglia activation; experiment: cells; assay type: cell-based, rat
[6] = primary HTS, 10 μM, LPS-stimulated primary microglia
[7] = primary HTS, 10 μM, fibrin-stimulated primary microglia
[8] = primary microglia HTS, 10 μM, LPS-stimulated, cell size >800 μm^2 as marker of activation
[9] = primary microglia HTS, 10 μM, fibrin-stimulated, cell size >800 μm^2 as marker of activation
[10] = HTS of 1907 compounds, quadrant by fibrin and LPS inhibition
[11] = primary microglia HTS, LPS stimulation, increased cell size (>800 μm^2) as marker of activation
[12] = primary microglia HTS, fibrin stimulation, increased cell size (>800 μm^2) as marker of activation
[13] = quadrant by fibrin and LPS inhibition in HTS of 1907 compounds
[14] = primary microglia HTS, LPS stimulation, compounds at 10 μM
[15] = primary microglia HTS, fibrin stimulation, compounds at 10 μM
[16] = classification by fibrin and LPS inhibition, HTS at 10 μM
[17] = 48 h, primary microglia HTS, LPS stimulation, increased cell size (>800 μm^2) as marker of activation

CO[C@H]1/C=C/O[C@@]2(C)Oc3c(C)c(O)c4c(O)c(c(/C=N/N5CCN(C)CC5)c(O)c4c3C2=O)NC(=O)/C(C)=C\C=C\[C@H](C)[C@H](O)[C@@H](C)[C@@H](O)[C@@H](C)[C@H](OC(C)=O)[C@@H]1C [Rifampicin]
Fibrin % cell toxicity ([1]; rat): 1% | LPS % inhibition [2]: 7% | Fibrin % inhibition [3]: −21% | LPS % cell toxicity ([4]; rat): 0% | Quadrant (FIG. 5b) [5]: Q4

COc1cc(N)c(Cl)cc1C(=O)NC1CCN(CCCOc2ccc(F)cc2)CC1OC (stereo not shown) [Cisapride]
Fibrin % cell toxicity ([1]; rat): 0% | inhibition at 10 µM [2, 6]: 5% | inhibition at 10 µM [3, 7]: -38% | LPS % cell toxicity ([4]; rat): 0% | Quadrant (FIG. 5b) ([5]; primary HTS, 10 μM): Q4

NCCS [Cysteamine]
Fibrin % cell toxicity ([1]; rat): 0% | inhibition at 10 µM [2]: 12% | inhibition at 10 µM [3]: 9% | LPS % cell toxicity ([4]; rat): 0% | Quadrant (FIG. 5b) [5]: Q4

CC1=C(/C=C/C(C)=C/C=C/C(C)=C/C(=O)O)C(C)(C)CCC1 [Tretinon, Tretinoin]
Fibrin % cell toxicity [1]: 1% | LPS % inhibition [2, 8]: 34% | Fibrin % inhibition [3, 9]: 27% | LPS % cell toxicity [4]: 1% | Quadrant (FIG. 5b) [5, 10]: Q4

CCCCc1nc(Cl)c(CO)n1Cc1ccc(-c2ccccc2-c2nnn[nH]2)cc1 [Losartan, Losartan Potassium]
Fibrin % cell toxicity [1]: 1% | LPS % inhibition [2, 11]: 19% | Fibrin % inhibition [3, 12]: −3% | LPS % cell toxicity [4]: 1% | Quadrant (FIG. 5b) [5, 13]: Q4

CC(C(=O)O)c1ccc2c(c1)[nH]c1ccc(Cl)cc12 (stereo not shown) [Carprofen]
Fibrin % cell toxicity ([1]; rat): 0% | inhibition at 10 µM [2, 6]: 15% | inhibition at 10 µM [3, 7]: -2% | LPS % cell toxicity ([4]; rat): 0% | Quadrant (FIG. 5b) ([5]; primary HTS, 10 μM): Q4

O=C1NS(=O)(=O)c2ccccc21 [Saccharin]
Fibrin % cell toxicity ([1]; rat): 0% | inhibition at 10 µM ([2]; 48 h): 11% | inhibition at 10 µM [3]: -8% | LPS % cell toxicity ([4]; rat): 0% | Quadrant (FIG. 5b) [5]: Q4

COc1cc(C(=O)NS(=O)(=O)c2ccccc2C)ccc1Cc1cn(C)c2ccc(NC(=O)OC3CCCC3)cc12 [Zafirlukast]
Fibrin % cell toxicity ([1]; rat): 0% | inhibition at 10 µM [2, 8]: 3% | inhibition at 10 µM [3, 9]: -21% | LPS % cell toxicity ([4]; rat): 1% | Quadrant (FIG. 5b) [5, 10]: Q4

NC[C@@H]1O[C@H](O[C@H]2[C@@H](O)[C@H](O[C@@H]3[C@@H](O)[C@H](N)C[C@H](N)[C@H]3O[C@H]3O[C@H](CN)[C@@H](O)[C@H](O)[C@H]3N)O[C@@H]2CO)[C@H](N)[C@@H](O)[C@@H]1O.O=S(=O)(O)O [Neomycin Sulfate]
Fibrin % cell toxicity [1]: 0% | LPS % inhibition [2, 11]: 18% | Fibrin % inhibition [3, 12]: 15% | LPS % cell toxicity [4]: 0% | Quadrant (FIG. 5b) [5, 13]: Q4

CC=CC(=O)N(CC)c1ccccc1C [Crotamiton]
Fibrin % cell toxicity [1]: 0% | LPS % inhibition [2, 14]: 3% | Fibrin % inhibition [3, 15]: 12% | LPS % cell toxicity [4]: 0% | Quadrant (FIG. 5b) [5, 16]: Q4

CC[C@H]1OC(=O)[C@H](C)C(=O)[C@H](C)[C@@H](O[C@@H]2O[C@H](C)C[C@H](N(C)C)[C@H]2O)[C@](C)(OC)C[C@@H](C)C(=O)[C@H](C)[C@H]2N(CCCCn3cnc(-c4cccnc4)c3)C(=O)O[C@]12C [Telithromycin]
Fibrin % cell toxicity ([1]; rat): 1% | inhibition at 10 µM [2, 8]: 17% | inhibition at 10 µM [3, 9]: 0% | LPS % cell toxicity ([4]; rat): 0% | Quadrant (FIG. 5b) [5, 10]: Q4

Oc1ccc(Cl)cc1 [Parachlorophenol]
Fibrin % cell toxicity ([1]; rat): 0% | inhibition at 10 µM ([2]; 48 h): 15% | inhibition at 10 µM [3]: 21% | LPS % cell toxicity ([4]; rat): 0% | Quadrant (FIG. 5b) [5]: Q4

Nc1ccc(S(=O)(=O)Nc2ccccn2)cc1 [Sulfapyridine]
Fibrin % cell toxicity ([1]; rat): 1% | inhibition at 10 µM [2, 8]: 20% | inhibition at 10 µM [3, 9]: -37% | LPS % cell toxicity ([4]; rat): 0% | Quadrant (FIG. 5b) [5, 10]: Q4

O=c1[nH]c2ccccc2n1CCCN1CCC(n2c(=O)[nH]c3cc(Cl)ccc32)CC1 [Domperidone]
Fibrin % cell toxicity ([1]; rat): 1% | inhibition at 10 µM [2]: 15% | inhibition at 10 µM [3]: 20% | LPS % cell toxicity ([4]; rat): 0% | Quadrant (FIG. 5b) [5]: Q4

COC(=O)[C@H]1[C@H]2C[C@@H]3c4[nH]c5cc(OC)ccc5c4CCN3C[C@H]2C[C@@H](OC(=O)c2cc(OC)c(OC)c(OC)c2)[C@@H]1OC [Reserpine]
Fibrin % cell toxicity ([1]; rat): 3% | inhibition at 10 µM [2, 17]: 64% | inhibition at 10 µM [3, 12]: -4% | LPS % cell toxicity ([4]; rat): 7% | Quadrant (FIG. 5b) [5, 13]: Q1

O=c1oc2ccccc2c(O)c1Cc1c(O)c2ccccc2oc1=O [Dicoumarol]
Fibrin % cell toxicity ([1]; rat): 1% | inhibition at 10 µM [2, 14]: 18% | inhibition at 10 µM [3, 15]: -24% | LPS % cell toxicity ([4]; rat): 0% | Quadrant (FIG. 5b) [5, 16]: Q4

Cc1ncc([N+](=O)[O-])n1CCO [Metronidazole]
Fibrin % cell toxicity ([1]; rat): 0% | inhibition at 10 µM [2, 17]: 15% | inhibition at 10 µM [3, 12]: -12% | LPS % cell toxicity ([4]; rat): 1% | Quadrant (FIG. 5b) [5, 13]: Q4

Hydrocortisone hemisuccinate [reference compound]
Fibrin % cell toxicity [1]: 1% | IC50 [1]: > 20 µM | LPS % inhibition [2]: 64% | LPS specificity [2]: 0.1 | LPS_HS [2]: −1.10 | IC50 ([2]; read-out: LPS IC50): 7 µM | IC50 ([2]; read-out: LPS IC50 (uM) (Suppl. Table 7)): 7 µM | IC50 ([2]; read-out: LPS_IC50): 0.036 µM | Fibrin % inhibition [3]: 100% | fib specificity [3]: 8.4 | fib_HS [3]: −0.39 | IC50 ([3]; read-out: Fibrin IC50): 0.02 µM | IC50 ([3]; read-out: Fibrin IC50 (uM) (Suppl. Table 7)): 0.02 µM | IC50 ([3]; read-out: fib_IC50): 0.004 µM | IC50 [4]: > 20 µM | LPS % cell toxicity [4]: 1% | Activity [5]: fib/LPS | Cherry-picked Hit (Suppl. Table 7) [5]: HIT (key: HIT: Hits were defined as molecules that exhibited greater than 50% inhibition of either fibrin or LPS activation) | Hit [5]: HIT (key: HIT: Hits were defined as molecules that exhibited greater than 50% inhibition of either fibrin or LPS activation) | Quadrant (FIG. 5b) [5]: Q2

CN(C)CCCN1c2ccccc2Sc2ccc(Cl)cc21.Cl
Fibrin % cell toxicity [1]: 2% | LPS % inhibition ([2]; 10 µM): 25% | Fibrin % inhibition ([3]; 10 µM): 9% | LPS % cell toxicity [4]: 1% | Quadrant (FIG. 5b) [5]: Q4

N=C(N)NC(=O)c1nc(Cl)c(N)nc1N [Amiloride]
Fibrin % cell toxicity ([1]; rat): 1% | inhibition at 10 µM [2, 14]: 7% | inhibition at 10 µM [3, 15]: 20% | LPS % cell toxicity ([4]; rat): 0% | Quadrant (FIG. 5b) ([5]; quadrant by fibrin and LPS inhibition, HTS at 10 μM): Q4

CCC(=O)OCC(=O)[C@@]1(OC(=O)CC)[C@@H](C)C[C@H]2[C@@H]3CCC4=CC(=O)C=C[C@]4(C)[C@@]3(F)[C@@H](O)C[C@@]21C [Betamethasone 17,21-dipropionate]
Fibrin % cell toxicity [1]: 1% | LPS % inhibition [2, 6]: 29% | Fibrin % inhibition [3, 7]: 21% | LPS % cell toxicity [4]: 0% | Quadrant (FIG. 5b) ([5]; primary HTS, 10 μM): Q4

CCN(CC)CCCC(C)Nc1c2ccc(Cl)cc2nc2ccc(OC)cc12 (stereo not shown) [Quinacrine]
Fibrin % cell toxicity ([1]; rat): 1% | inhibition at 10 µM [2, 17]: 118% | inhibition at 10 µM [3, 12]: 24% | LPS % cell toxicity ([4]; rat): 65% | Quadrant (FIG. 5b) [5, 13]: Q1

CN(C/C=C/c1ccccc1)Cc1cccc2ccccc12 [Naftifine]
Fibrin % cell toxicity ([1]; rat): 0% | inhibition at 10 µM ([2]; 48 h): 3% | inhibition at 10 µM [3]: -12% | LPS % cell toxicity ([4]; rat): 0% | Quadrant (FIG. 5b) [5]: Q4

C[n+]1ccccc1/C=N/O [Pralidoxime]
Fibrin % cell toxicity ([1]; rat): 1% | inhibition at 10 µM ([2]; 48 h): 17% | inhibition at 10 µM [3]: -12% | LPS % cell toxicity ([4]; rat): 0% | Quadrant (FIG. 5b) [5]: Q4

CCN[C@H]1C[C@H](C)S(=O)(=O)c2sc(S(N)(=O)=O)cc21 [Dorzolamide]
Fibrin % cell toxicity ([1]; rat): 1% | inhibition at 10 µM [2]: 15% | inhibition at 10 µM [3]: -40% | LPS % cell toxicity ([4]; rat): 1% | Quadrant (FIG. 5b) [5]: Q4

CC(=O)Oc1ccc(C(c2ccc(OC(C)=O)cc2)c2ccccn2)cc1 [Bisacodyl]
Fibrin % cell toxicity ([1]; rat): 0% | inhibition at 10 µM [2, 6]: 8% | inhibition at 10 µM [3, 7]: 10% | LPS % cell toxicity ([4]; rat): 0% | Quadrant (FIG. 5b) ([5]; primary HTS, 10 μM): Q4

S=P(N1CC1)(N1CC1)N1CC1 [Thiotepa]
Fibrin % cell toxicity ([1]; rat): 1% | inhibition at 10 µM [2, 8]: 15% | inhibition at 10 µM [3, 9]: -15% | LPS % cell toxicity ([4]; rat): 1% | Quadrant (FIG. 5b) [5, 10]: Q4

COC(C)(C)CCC[C@H](C)C/C=C/C(C)=C/C(=O)OC(C)C [Methoprene (s)]
Fibrin % cell toxicity [1]: 1% | LPS % inhibition [2, 11]: 12% | Fibrin % inhibition [3, 12]: −9% | LPS % cell toxicity [4]: 0% | Quadrant (FIG. 5b) [5, 13]: Q4

CC/C(=C(/CC)c1ccc(O)cc1)c1ccc(O)cc1 [Diethylstilbestrol]
Fibrin % cell toxicity ([1]; rat): 1% | inhibition at 10 µM [2]: 16% | inhibition at 10 µM [3]: -26% | LPS % cell toxicity ([4]; rat): 0% | Quadrant (FIG. 5b) [5]: Q4
